One data set concerns A549 lung cancer cells. As to the kind of experiment: MTT cell viability assay, A549. The class given is cell-based, human. The settings on record: mean of three independent experiments (N = 9). As for the experimental part: (§1) To evaluate the effect of the examined series on the viability of different lung cancer cells, MTT assay was conducted after exposing A549, H1299, and H661 cell lines to increasing concentrations of each compound for 48 h. […] Table 2 and Supplementary Figure S92 (see Supplementary Materials) show the 50% inhibitory concentration (IC50) values for the compounds under investigation in A549, H1299, and H661 lung cancer cells.
(§2) The human lung cancer cell lines A549, H1299 and H661 and the normal cells dermal fibroblasts were obtained from the American Type Culture Collection ATCC. Cells were cultured as a monolayer at seeding density of 8 × 10^3 cells per well in high glucose Dulbecco’s modified eagle medium (DMEM) (Invitrogen, USA), as previously described. The in vitro assessment of the antitumorigenic activities related to the studied compounds was undertaken using the 3-(4,5-dimethylthiazol-2yl)-2,5-diphenyl tetrazolium bromide (MTT) colorimetric assay, as previously reported. The compounds under investigation were tested in three triplicates of each concentration in three independent assays for a total of nine replicates. Both positive (cisplatin) and negative (untreated culture) controls were applied under the same experimental conditions. Cells were cultured for 48 h at 37 °C in a 5% CO2 incubator. Afterwards, MTT assay was carried out where viable cell count was determined based on the amount of formazan crystals, as verified by the absorbance at 490 nm.
(§3) Data was analyzed by Graphpad Prism software (Graphpad Software Inc. Jolla, CA, USA) for the determination of IC50 value. All data were expressed as the average of triplicate experiments.

A further data set concerns human dermal fibroblasts. As to the kind of experiment: MTT cell viability assay, normal dermal fibroblasts. The class given is cell-based. The settings on record: 48 h, noncancerous human dermal fibroblasts. As for the experimental part:
as §1, §2, §3
In general terms: Tetrazolium dyes change colour on reduction, which living cells bring about.

Data set [1] concerns A549 cells. Description: Wound healing (migration) assay. Format: cell-based. The settings on record: Homo sapiens, A549, 24 h, A549, 10 µM, read-out: % inhibition of wound closure. Here is the method:
The wound healing assay was performed in A549 cells to evaluate the effect of the synthesized series on lung cancer cell migration, as shown in Table 3. The wound of the control sample was completely closed after 24 h. […] Cell migration was inhibited after 24 h of treatment with compounds 22 or 23 compared to untreated control cells.
A549 cells were seeded in inserts (Ibidi GmbH, Gräfelfing, Germany) at concentration of 30,000 per insert in 70 μL medium and incubated for 24 h. Afterward, inserts were removed and cells incubated with 10 μg/mL of mitomycin C for 2 h to stop cell proliferation. The medium was removed, and cells were washed three times then cells were treated with 10 µM concentration of the examined compound. Images were captured at 24 h using BOECO microscope coupled with 5.0 Mega Cmos camera at 4× magnification. Digital images were taken using ISCapture software and wound width was measured using MIPAR software (MIPAR, Worthington, OH, USA).

The test system of data set [2] is A549 cells. Description: Colony formation in soft agar assay. Format: cell-based, human. Also noted: Average Colony Size: unit not given here. The settings on record: day 12. Here is the method: To investigate the effect of treatment with either potent compound 22 or 23 at two different concentrations (5 and 10 µM) on the colony-forming capability of lung cancer cells, A549 cells were treated with either concentration for 24 h. Afterwards, cells were grown on soft agar.
To carry out the soft agar assay, a bottom agar film of 1% (w/v) was prepared by mixing autoclaved 1% (w/v) agar solution with 2× DMEM medium in a 1:1 ratio and allowed to solidify at room temperature. A mixture of 1 × 10^4 of A549 cells treated with either compound NV7 (5 µM and 10 µM) or NV8 (5 µM and 10 µM) and 0.6% (w/v) agar solution was prepared in 1:1 ratio and poured on top of the bottom layer and left to solidify. Plate was incubated for 2 weeks. Photos were captured after 12 days using EVOS XL Core imaging system (Invitrogen, Waltham, MA, USA).

For a further data set, the system named is H661 lung cancer cells. As to the kind of experiment: MTT cell viability assay, H661. The class given is cell-based, human. The settings on record: mean of three independent experiments (N = 9). As for the experimental part: as §1, §2, §3
The subject of a further data set is H1299 lung cancer cells. As to the kind of experiment: MTT cell viability assay, H1299. Format: cell-based, human. The settings on record: mean of three independent experiments (N = 9). As for the experimental part:
as §1, §2, §3

Structures are written as SMILES. Where a name gives a salt, the structure may show the parent alone.

Consider `CCCCCCCCCC[n+]1ccc(C(=O)NN=Cc2ccc[n+](CCCCCCCCCC)c2)cc1.F[B-](F)(F)F.F[B-](F)(F)F` [Compound 23, 1-Decyl-3-((2-(1-decylpyridin-1-ium-4-carbonyl)hydrazono)methyl)pyridin-1-ium Tetrafluoroborate], for which the IC50 (as a rule, the midpoint of a concentration-inhibition curve) in the data set on A549 lung cancer cells (Homo sapiens, A549, 48 h) is 13.5 µM; in the data set on human dermal fibroblasts (Homo sapiens, Fibroblast), over 300 µM; in the data set on H661 lung cancer cells (48 h) it was 11.3 µM; in the data set with H1299 lung cancer cells (Homo sapiens, NCI-H1299, 48 h), 10.8 µM. Also, the inhibition – broadly, the relative decrease from the control value, in per cent – at 10 µM in the data set with A549 cells [1] was found to be 67.1%. Moreover, the results for the “Average Colony Count” value in the data set with A549 cells [2] (5 µM) and with A549 cells [2] (10 µM) were 135 and 45, respectively. Further, the “Average Colony Size” value in the data set on A549 cells [2] (5 µM) was determined as 43771; with A549 cells [2] (10 µM), 16837.

With `CCCCCCCCCC[n+]1ccc(C(=O)N/N=C/c2ccc[n+](CCCCCCCCCC)c2)cc1` (as salt: phosphate) [Compound 22, 1-Decyl-3-((2-(1-decylpyridin-1-ium-4-carbonyl)hydrazono)methyl)pyridin-1-ium Hexafluorophosphate], the melting point (usually the temperature of the solid-liquid transition) was 42 to 44 °C.

`CCCCCCCCCCCCCCCCCC[n+]1ccc(C(=O)NN=Cc2ccc[n+](CCCCCCCCCCCCCCCCCC)c2)cc1.[I-].[I-]` [Compound 15, 1-Octadecyl-3-((2-(1-octadecylpyridin-1-ium-4-carbonyl)hydrazono)methyl)pyridin-1-ium Iodide] had a melting point of 192 to 193 °C. In the data set with A549 lung cancer cells (48 h), this compound came in with an IC50 of 26.2 µM. The compound also showed an IC50 in the data set with human dermal fibroblasts of over 300 µM. This compound also showed an IC50 in the data set on H661 lung cancer cells (48 h) of 26.1 µM. This compound also displayed an IC50 in the data set on H1299 lung cancer cells (48 h) of 22.1 µM.

Consider `CCCCCCCCC[n+]1ccc(C(=O)NN=Cc2ccc[n+](CCCCCCCCC)c2)cc1.[I-].[I-]` [Compound 10, 1-Nonyl-3-((2-(1-nonylpyridin-1-ium-4-carbonyl)hydrazono)methyl)pyridin-1-ium Iodide], for which the melting point was in the range of 76 to 78 °C. The compound further displayed an IC50 with A549 lung cancer cells (48 h) of 55.6 µM. In addition, the IC50 in the data set with human dermal fibroblasts was over 300 µM. In the data set on H661 lung cancer cells (48 h), this compound registered an IC50 of 60.1 µM. This compound had an IC50 with H1299 lung cancer cells (48 h) of 63.1 µM.

For the compound `CCCCCCCC[n+]1ccc(C(=O)NN=Cc2ccc[n+](CCCCCCCC)c2)cc1.[I-].[I-]` [Compound 9, 1-Octyl-3-((2-(1-octylpyridin-1-ium-4-carbonyl)hydrazono)methyl)pyridin-1-ium Iodide], the melting point lay within 82 to 84 °C. Also, half-maximal inhibition in the data set with A549 lung cancer cells (48 h) (IC50) was put at 75.3 µM. This compound also had an IC50 in the data set on human dermal fibroblasts of over 300 µM. The IC50 in the data set with H661 lung cancer cells (48 h) is 74.2 µM. Further, half-maximal inhibition in the data set with H1299 lung cancer cells (48 h) (IC50) was put at 64.3 µM.

With `CCCCCCCCCC[n+]1ccc(C(=O)NN=Cc2ccc[n+](CCCCCCCCCC)c2)cc1.[I-].[I-]` [Compound 11, 1-Decyl-3-((2-(1-decylpyridin-1-ium-4-carbonyl)hydrazono)methyl)pyridin-1-ium Iodide], the melting point fell in the range of 70 to 72 °C. The compound also displayed an IC50 with A549 lung cancer cells (48 h) of 15.1 µM. Moreover, the IC50 with human dermal fibroblasts is over 300 µM. Also, in the data set with H661 lung cancer cells (48 h), the IC50 was determined as 23.5 µM. Besides, in the data set with H1299 lung cancer cells (48 h), the IC50 amounted to 19 µM.

As to `CCCCCCCCCC[n+]1ccc(C(=O)N/N=C/c2ccc[n+](CCCCCCCCCC)c2)cc1` [Compound 22, 1-Decyl-3-((2-(1-decylpyridin-1-ium-4-carbonyl)hydrazono)methyl)pyridin-1-ium Hexafluorophosphate], the IC50 is 23.5 µM in the data set on A549 lung cancer cells (Homo sapiens, A549, 48 h); over 300 µM in the data set with human dermal fibroblasts (Homo sapiens, Fibroblast); 25.6 µM in the data set on H661 lung cancer cells (Homo sapiens, NCI-H661, 48 h); 29.1 µM in the data set with H1299 lung cancer cells (Homo sapiens, NCI-H1299, 48 h). Besides, in the data set with A549 cells [1], the inhibition at 10 µM is 67.6%. In addition, the “Average Colony Count” value turned out to be 210 in the data set on A549 cells [2] (5 µM) and 98 in the data set with A549 cells [2] (10 µM). For the same compound, the “Average Colony Size” value in the data set on A549 cells [2] (5 µM) is on record as 16356; in the data set on A549 cells [2] (10 µM), 11159.

Regarding `CCCCCCCCCCCC[n+]1ccc(C(=O)NN=Cc2ccc[n+](CCCCCCCCCCCC)c2)cc1.[I-].[I-]` [Compound 12, 1-Dodecyl-3-((2-(1-dodecylpyridin-1-ium-4-carbonyl)hydrazono)methyl)pyridin-1-ium Iodide], the melting point is 63 to 65 °C. Moreover, in the data set on A549 lung cancer cells (48 h), half-maximal inhibition (IC50) was put at 26.9 µM. In addition, the IC50 in the data set with human dermal fibroblasts is over 300 µM. In the data set with H661 lung cancer cells (48 h), this compound returned an IC50 of 29.8 µM. Also, the IC50 in the data set on H1299 lung cancer cells (48 h) is 30.1 µM.

Consider `CCCCCCCCCCCC[n+]1ccc(C(=O)N/N=C/c2ccc[n+](CCCCCCCCCCCC)c2)cc1` [Compound 26, 11-Dodecyl-3-((2-(1-dodecylpyridin-1-ium-4-carbonyl)hydrazono)methyl)pyridin-1-ium Tetrafluoroborate], for which the half-maximal inhibitory concentration (IC50) is 44 µM in the data set on A549 lung cancer cells (Homo sapiens, A549, 48 h); over 300 µM in the data set on human dermal fibroblasts (Homo sapiens, Fibroblast); 40.4 µM in the data set on H661 lung cancer cells (Homo sapiens, NCI-H661, 48 h); 39.3 µM in the data set with H1299 lung cancer cells (Homo sapiens, NCI-H1299, 48 h).

`CCCCCCCCCCCC[n+]1ccc(C(=O)NN=Cc2ccc[n+](CCCCCCCCCCCC)c2)cc1` [Compound 27, 1-Dodecyl-3-((2-(1-dodecylpyridin-1-ium-4-carbonyl)hydrazono)methyl)pyridin-1-ium Trifluoroacetate]: the IC50 with A549 lung cancer cells (Homo sapiens, A549, 48 h) was 14.3 µM; in the data set with human dermal fibroblasts (Homo sapiens, Fibroblast), over 300 µM; with H661 lung cancer cells (48 h), 10.5 µM; with H1299 lung cancer cells (48 h), 12.1 µM.

As to `CCCCCCCC[n+]1ccc(C(=O)NN=Cc2ccc[n+](CCCCCCCC)c2)cc1` [Compound 18, 1-Octyl-3-((2-(1-octylpyridin-1-ium-4-carbonyl)hydrazono)methyl)pyridin-1-ium Trifluoroacetate], the IC50 is 78.5 µM in the data set with A549 lung cancer cells (48 h), over 300 µM in the data set with human dermal fibroblasts, 74.5 µM with H661 lung cancer cells (48 h) and 71 µM in the data set with H1299 lung cancer cells (48 h).

Regarding `CCCCCCCC[n+]1ccc(C(=O)NN=Cc2ccc[n+](CCCCCCCC)c2)cc1` [Compound 17, 1-Octyl-3-((2-(1-octylpyridin-1-ium-4-carbonyl)hydrazono)methyl)pyridin-1-ium Tetrafluoroborate], the IC50 with A549 lung cancer cells (Homo sapiens, A549, 48 h) was 69.1 µM; in the data set with human dermal fibroblasts (Homo sapiens, Fibroblast) it was over 300 µM; in the data set with H661 lung cancer cells (Homo sapiens, NCI-H661, 48 h) it was 61.2 µM; in the data set with H1299 lung cancer cells (Homo sapiens, NCI-H1299, 48 h), 66 µM.

As to `CCCCCCCC[n+]1ccc(C(=O)N/N=C/c2ccc[n+](CCCCCCCC)c2)cc1` (as salt: phosphate) [Compound 16, 1-Octyl-3-((2-(1-octylpyridin-1-ium-4-carbonyl)hydrazono)methyl)pyridin-1-ium Hexafluorophosphate], the melting point was in the range of 58 to 59 °C.

For `CCCCCCCCCCCCCC[n+]1ccc(C(=O)NN=Cc2ccc[n+](CCCCCCCCCCCCCC)c2)cc1` [Compound 29, 1-Tetradecyl-3-((2-(1-tetradecylpyridin-1-ium-4-carbonyl)hydrazono)methyl)pyridin-1-ium Tetrafluoroborate], the IC50 in the data set on A549 lung cancer cells (Homo sapiens, A549, 48 h) was 42.1 µM; in the data set on human dermal fibroblasts (Homo sapiens, Fibroblast) it was over 300 µM; in the data set on H661 lung cancer cells (Homo sapiens, NCI-H661, 48 h), 46.8 µM; with H1299 lung cancer cells (Homo sapiens, NCI-H1299, 48 h) it was 44.6 µM.

Take `CCCCCCCCCCCCCCCC[n+]1ccc(C(=O)NN=Cc2ccc[n+](CCCCCCCCCCCCCCCC)c2)cc1` [Compound 14, 1-Hexadecyl-3-((2-(1-hexadecylpyridin-1-ium-4-carbonyl)hydrazono)methyl)pyridin-1-ium Iodide]: the IC50 was 7.11 µM with A549 lung cancer cells (48 h), over 300 µM with human dermal fibroblasts, 11.2 µM with H661 lung cancer cells (48 h) and 10.1 µM in the data set on H1299 lung cancer cells (48 h).
